Reference: patent US20260022096A1, “NOVEL SULFONAMIDES AND THEIR USE AS NEUROPROTECTIVE AND/OR NEURORESTORATIVE AGENTS” (GENECODE, priority 2022, published 2026)

Target: T1, GFRα1-RET (Homo sapiens, UniProt P56159)
T1 construct: expressed in transfected cells; host or cells: MG87 murine fibroblasts, stably transfected
T1 sequence (P56159 25-429 limits assumed): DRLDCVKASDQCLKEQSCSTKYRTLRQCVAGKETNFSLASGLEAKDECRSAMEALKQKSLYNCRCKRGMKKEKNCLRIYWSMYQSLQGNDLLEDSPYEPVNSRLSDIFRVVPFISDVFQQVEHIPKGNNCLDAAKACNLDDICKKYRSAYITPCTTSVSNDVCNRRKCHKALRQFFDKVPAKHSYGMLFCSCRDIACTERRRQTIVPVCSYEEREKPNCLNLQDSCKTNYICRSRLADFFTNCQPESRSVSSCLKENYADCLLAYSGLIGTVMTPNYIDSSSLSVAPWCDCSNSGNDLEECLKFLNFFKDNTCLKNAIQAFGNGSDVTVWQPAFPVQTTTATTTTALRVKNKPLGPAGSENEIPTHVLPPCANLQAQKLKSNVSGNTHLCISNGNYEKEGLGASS
Assay: Elk1 reporter-gene (luciferase) assay in cells expressing GFRα1-RET
Assay type: cell-based
Settings: MG87 murine fibroblasts stably transfected with PathDetect Elk-1, GFRα1 and RET, 6 concentrations, agonist/activator activity
Description: For ECso determination, a dose-response test was performed using 6 concentrations of each tested compound. Dose-response curves were fitted using the sigmoidal dose-response (variable slope) analysis in GraphPad Prism program (Graph Pad Inc) and ECso of agonist/activator activity was calculated. Dose-response experiments were all performed in duplicate, two times independently.

| SMILES | EC50 |
| --- | --- |
| CCCN(C)S(=O)(=O)c1ccc(OC)c(N2CCN(C(=O)c3ccc(F)cc3Cl)CC2C)c1 (racemic) [compound 001, 4-methoxy-N-methyl-N-propyl-3-[rac-(2S)-4-(2-chloro-4-fluoro-benzoyl)-2-methyl-piperazin-1-yl]benzenesulfonamide] | 1 to 10 µM |
| COc1ccc(S(=O)(=O)N2CCCC(Cc3ccccc3)C2)cc1N1C2CCC1CN(C(=O)c1ccc(F)cc1Cl)C2 (racemic) [compound 011, [(1S,5R)-8-[5-[[(3RS)-3-benzyl-1-piperidyl]sulfonyl]-2-methoxy-phenyl]-3,8-diazabicyclo[3.2.1]]octan-3-yl]-(2-chloro-4-fluoro-phenyl)methanone] | < 1 µM |
| CCCN(C)S(=O)(=O)c1ccc(OC)c(N2CCN(C(=O)c3ccc(F)cc3C(F)(F)F)CC2C(F)(F)F)c1 (racemic) [compound 016, 4-methoxy-N-methyl-N-propyl-3-[rac-(2S)-4-[4-fluoro-2-(trifluoromethyl)benzoyl]-2-(trifluoromethyl)piperazin-1-yl]benzenesulfonamide] | 1 to 10 µM |
| CCCN(C)S(=O)(=O)c1ccc(OC)c(N2CCN(C(=O)c3ccc(F)cc3C(F)(F)F)CC2CC)c1 (racemic) [compound 017, 4-methoxy-N-methyl-N-propyl-3-[rac-(2S)-2-ethyl-4-[4-fluoro-2-(trifluoromethyl)benzoyl]piperazin-1-yl]benzenesulfonamide] | 10 to 50 µM |
| COc1ccc(S(=O)(=O)N2CCC(Cc3ccccc3)CC2)cc1N1CCN(C(=O)c2ccc(F)cc2C(F)(F)F)CC1C (racemic) [compound 018, [4-fluoro-2-(trifluoromethyl)phenyl]-[rac-(3S)-4-[5-[(4-benzyl-1-piperidyl)sulfonyl]-2-methoxy-phenyl]-3-methyl-piperazin-1-yl]methanone] | 1 to 10 µM |
| COc1ccc(S(=O)(=O)N2CCC(Cc3ccccc3)CC2)cc1N1CCN(C(=O)c2ccc(F)cc2Cl)CC1C (racemic) [compound 019, (2-chloro-4-fluoro-phenyl)-[rac-(3S)-4-[5-[(4-benzyl-1-piperidyl)sulfonyl]-2-methoxy-phenyl]-3-methyl-piperazin-1-yl]methanone] | < 1 µM |
| COc1ccc(S(=O)(=O)NC(C)(C)C)cc1N1CCN(C(=O)c2ccc(F)cc2Cl)CC1C (racemic) [compound 020, N-tert-butyl-4-methoxy-3-[rac-(2S)-4-(2-chloro-4-fluoro-benzoyl)-2-methyl-piperazin-1-yl]benzenesulfonamide] | 10 to 50 µM |
| CCCN(C)S(=O)(=O)c1ccc(OC)c(N2CCN(C(=O)c3ccc(F)cc3C(F)(F)F)CC2C)c1 (racemic) [compound 021, 4-methoxy-N-methyl-N-propyl-3-[rac-(2S)-4-[4-fluoro-2-(trifluoromethyl)benzoyl]-2-methyl-piperazin-1-yl]benzenesulfonamide] | 1 to 10 µM |
| CCCN(C)S(=O)(=O)c1ccc(OC)c(N2CCN(C(=O)c3ccc(F)cc3C(F)(F)F)CC2COC)c1 (racemic) [compound 022, 4-methoxy-N-methyl-N-propyl-3-[rac-(2R)-4-[4-fluoro-2-(trifluoromethyl)benzoyl]-2-(methoxymethyl)piperazin-1-yl]benzenesulfonamide] | 10 to 50 µM |
| COc1ccc(S(=O)(=O)N2CCC(Cc3ccccc3)CC2)cc1N1C2CCC1CN(C(=O)c1ccc(F)cc1Cl)C2 (racemic) [compound 025, (2-chloro-4-fluoro-phenyl)-[rac-(1S,5S)-8-[5-[(4-benzyl-1-piperidyl)sulfonyl]-2-methoxy-phenyl]-3,8-diazabicyclo[3.2.1]]octan-3-yl]methanone] | 1 to 10 µM |
| COc1ccc(S(=O)(=O)N2CCC(OCc3ccccc3)C2)cc1N1C2CCC1CN(C(=O)c1ccc(F)cc1Cl)C2 (racemic) [compound 037, [(1S,5R)-8-[5-[(3SR)-3-benzyloxypyrrolidin-1-yl]sulfonyl-2-methoxy-phenyl]-3,8-diazabicyclo[3.2.1]octan-3-yl]-(2-chloro-4-fluoro-phenyl)methanone] | 1 to 10 µM |
| COc1ccc(S(=O)(=O)N(C)CCCF)cc1N1CCN(C(=O)c2ccc(F)cc2Cl)CC1C (racemic) [compound 038, N-(3-fluoropropyl)-4-methoxy-N-methyl-3-[rac-(2S)-4-(2-chloro-4-fluoro-benzoyl)-2-methyl-piperazin-1-yl]benzenesulfonamide] | 1 to 10 µM |
| COc1ccc(S(=O)(=O)N2CCN([C@H]3C[C@@H]3c3ccc(F)cc3)CC2)cc1N1[C@@H]2CC[C@H]1CN(C(=O)c1ccc(F)cc1Cl)C2 (racemic) [compound 044, (2-chloro-4-fluoro-phenyl)-[(1S,5R)-8-[5-[4-[(1SR,2RS)-2-(4-fluorophenyl)cyclopropyl]piperazin-1-yl]sulfonyl-2-methoxy-phenyl]-3,8-diazabicyclo[3.2.1]octan-3-yl]methanone] | < 1 µM |
| COc1ccc(S(=O)(=O)N2CCN(CC(C)c3ccc(F)cc3)CC2)cc1N1C2CCC1CN(C(=O)c1ccc(F)cc1Cl)C2 (racemic) [compound 045, (2-chloro-4-fluoro-phenyl)-[(1S,5R)-8-[5-[4-[(2RS)-2-(4-fluorophenyl)propyl]piperazin-1-yl]sulfonyl-2-methoxy-phenyl]-3,8-diazabicyclo[3.2.1]octan-3-yl]methanone] | < 1 µM |
| COc1ccc(S(=O)(=O)N2CCN(CC(C)c3ccccc3)CC2)cc1N1C2CCC1CN(C(=O)c1ccc(F)cc1Cl)C2 (racemic) [compound 047, (2-chloro-4-fluoro-phenyl)-[(1S,5R)-8-[2-methoxy-5-[4-[(2RS)-2-phenylpropyl]piperazin-1-yl]sulfonyl-phenyl]-3,8-diazabicyclo[3.2.1]octan-3-yl]methanone] | < 1 µM |
| CC(NS(=O)(=O)c1cc(Cl)c(O)c(N2C3CCC2CN(C(=O)c2ccc(F)cc2Cl)C3)c1)C(F)(F)F (racemic) [compound 104, 3-chloro-5-[(1S,5R)-3-(2-chloro-4-fluoro-benzoyl)-3,8-diazabicyclo[3.2.1]octan-8-yl]-4-hydroxy-N-[(1SR)-2,2,2-trifluoro-1-methyl-ethyl]benzenesulfonamide] | 1 to 10 µM |
| COc1ccc(S(=O)(=O)N2CCC(Oc3ccccc3)C2)cc1N1C2CCC1CN(C(=O)c1ccc(F)cc1Cl)C2 (racemic) [compound 126, (2-chloro-4-fluoro-phenyl)-[(1S,5R)-8-[2-methoxy-5-[(3SR)-3-phenoxypyrrolidin-1-yl]sulfonyl-phenyl]-3,8-diazabicyclo[3.2.1]octan-3-yl]methanone] | < 1 µM |
| COc1ccc(S(=O)(=O)N2CCC(N(C)c3ccccc3)C2)cc1N1C2CCC1CN(C(=O)c1ccc(F)cc1Cl)C2 (racemic) [compound 127, (2-chloro-4-fluoro-phenyl)-[(1S,5R)-8-[2-methoxy-5-[(3SR)-3-(N-methylanilino)pyrrolidin-1-yl]sulfonyl-phenyl]-3,8-diazabicyclo[3.2.1]octan-3-yl]methanone] | < 1 µM |
| COc1ccc(S(=O)(=O)N2CCN(CC(O)c3ccc(F)cc3)CC2)cc1N1C2CCC1CN(C(=O)c1ccc(F)cc1Cl)C2 (racemic) [compound 128, (2-chloro-4-fluoro-phenyl)-[(1S,5R)-8-[5-[4-[(2RS)-2-(4-fluorophenyl)-2-hydroxy-ethyl]piperazin-1-yl]sulfonyl-2-methoxy-phenyl]-3,8-diazabicyclo[3.2.1]octan-3-yl]methanone] | < 1 µM |
| COc1ccc(S(=O)(=O)NC(C)(C)C)cc1N1[C@@H]2CC[C@H]1CN(C(=O)c1ccc(F)cc1Cl)C2 [compound 002] | 1 to 10 µM |
